Test results published in patent publication US8940779B2, “Microbicidal composition” (Rohm and Haas Company, priority 2007, dated 2015).
Where “and” joins values, the source holds several entries; their conditions need not be identical. Identical values can stand only once. Like-named read-outs stand apart in the source and are kept apart here.

Legend:
Type in all cases: cell-based
Ps. aeruginosa ATCC#9027 = assay: Microtiter plate MIC synergy test (Kull synergy index), bacterium; details: for Ca, first component alone (QA, MIC) / Cb, MBIT alone (QB, MIC): Ps. aeruginosa; for Ca, first component alone (QA, MIC): component acting alone; for Cb, MBIT alone (QB, MIC): MBIT acting alone; for MIC: Pseudomonas aeruginosa, ATCC9027
S. aureus ATCC#6538 = assay: as above; details: for Ca, first component alone (QA, MIC) / Cb, MBIT alone (QB, MIC): S. aureus; for Ca, first component alone (QA, MIC): component acting alone; for Cb, MBIT alone (QB, MIC): MBIT acting alone; for MIC: Staphylococcus aureus, ATCC6538
[1] = system: Candida albicans (C. albicans, ATCC 10231); assay: Microtiter plate MIC synergy test (Kull synergy index), yeast; details: for Ca, first component alone (QA, MIC) / Cb, MBIT alone (QB, MIC): C. albicans; for Ca, first component alone (QA, MIC): component acting alone; for Cb, MBIT alone (QB, MIC): MBIT acting alone; for MIC: Candida albicans, ATCC10231
Excerpt: (§1) One measure of synergism is the industrially accepted method described by Kull, F. C.; Eisman, P. C.; Sylwestrowicz, H. D. and Mayer, R. L., in Applied Microbiology 9:538-541 (1961), using the ratio determined by the formula: Qa/QA+Qb/QB=Synergy Index (“SI”) wherein: • QA=concentration of compound A (first component) in ppm, acting alone, which produced an end point (MIC of Compound A). • Qa=concentration of compound A in ppm, in the mixture, which produced an end point. • QB=concentration of compound B (second component) in ppm, acting alone, which produced an end point (MIC of Compound B). • Qb=concentration of compound B in ppm, in the mixture, which produced an end point.
(§2) When the sum of Qa/QA and Qb/QB is greater than one, antagonism is indicated. […] The lower the SI, the greater the synergy shown by that particular mixture. The minimum inhibitory concentration (MIC) of a microbicide is the lowest concentration tested under a specific set of conditions that prevents the growth of added microorganisms.
(§3) Synergy tests were conducted using standard microtiter plate assays with media designed for optimal growth of the test microorganism. Minimal salt medium supplemented with 0.2% glucose and 0.1% yeast extract (M9GY medium) was used for testing bacteria; Potato Dextrose Broth (PDB medium) was used for testing yeast and mold. In this method, a wide range of combinations of microbicides was tested by conducting high resolution MIC assays in the presence of various concentrations of MBIT. High resolution MICs were determined by adding varying amounts of microbicide to one column of a microtitre plate and doing subsequent […] dilutions using an automated liquid handling system to obtain a series of endpoints ranging from 2 ppm to 10,000 ppm active ingredient.
(§4) The synergy of the combinations of the present invention was determined against a bacterium, Escherichia coli (E. coli—ATCC #8739), a yeast, Candida albicans (C. albicans—ATCC 10231), and a mold, Aspergillus niger (A. niger—ATCC 16404). The bacteria were used at a concentration of about 5×10^6 bacteria per mL and the yeast and mold at 5×10^5 fungi per mL. These microorganisms are representative of natural contaminants in many consumer and industrial applications. […] (yeast and mold) or 30° C. (bacteria).
(§5) In each test, Second Component (B) was MBIT and the First Component (A) was the other commercial microbicide.

[2] = system: Aspergillus niger (A. niger, ATCC 16404); assay: Microtiter plate MIC synergy test (Kull synergy index), mold; details: for Ca, first component alone (QA, MIC): A. niger, component acting alone; for MIC: Aspergillus niger
Excerpt: as §1, §2, §3, §4, §5

N#CC(Br)(Br)C(N)=O [DBNPA, 2,2-Dibromo-3-nitrilopropionamide]
Ca, first component alone (QA, MIC) (Ps. aeruginosa ATCC#9027; contact time 24 hrs): 4.25 ppm AI | Ca, first component alone (QA, MIC) (Ps. aeruginosa ATCC#9027; contact time 48 hrs): 5.25 ppm AI | Ca, first component alone (QA, MIC) (S. aureus ATCC#6538; contact time 48 hrs): 8.5 ppm AI | Ca, first component alone (QA, MIC) ([1]; contact time 48 hrs): 44 ppm AI | Ca, first component alone (QA, MIC) ([1]; contact time 72 hrs): >44 ppm AI | Ca, first component alone (QA, MIC) ([2]; contact time 3 days): 42.5 ppm AI | Ca, first component alone (QA, MIC) ([2]; contact time 7 days): 200 ppm AI

C=O [HCHO, Formaldehyde]
Ca, first component alone (QA, MIC) (Ps. aeruginosa ATCC#9027; contact time 24 hrs): 15 ppm AI | Ca, first component alone (QA, MIC) (Ps. aeruginosa ATCC#9027; contact time 48 hrs): 26.25 ppm AI | Ca, first component alone (QA, MIC) (S. aureus ATCC#6538; contact time 24 hrs): 30 ppm AI | Ca, first component alone (QA, MIC) (S. aureus ATCC#6538; contact time 48 hrs): 30 ppm AI | Ca, first component alone (QA, MIC) ([1]; contact time 48 hrs): 425 ppm AI | Ca, first component alone (QA, MIC) ([1]; contact time 72 hrs): 525 ppm AI | Ca, first component alone (QA, MIC) ([2]; contact time 3 days): 200 ppm AI | Ca, first component alone (QA, MIC) ([2]; contact time 7 days): 425 ppm AI

Cn1sc2ccccc2c1=O [MBIT, N-methyl-1,2-benzisothiazolin-3-one]
Cb - ppm AI of MBIT (MIC end-point; alone QB or in the mixture Qb) (Ps. aeruginosa ATCC#9027; Ps. Aeruginosa ATCC#9027, contact time 24 hrs, Table 5): 100 ppm | Cb - ppm AI of MBIT (MIC end-point; alone QB or in the mixture Qb) (Ps. aeruginosa ATCC#9027; Ps. Aeruginosa ATCC#9027, contact time 48 hrs, Table 5): 175 ppm | Cb - ppm AI of MBIT (MIC end-point; alone QB or in the mixture Qb) (Ps. aeruginosa ATCC#9027; Ps. aeruginosa ATCC#9027, contact time 24 hrs, Table 6): 100 ppm | Cb - ppm AI of MBIT (MIC end-point; alone QB or in the mixture Qb) (Ps. aeruginosa ATCC#9027; Ps. aeruginosa ATCC#9027, contact time 48 hrs, Table 6): 175 ppm | Cb, MBIT alone (QB, MIC) (Ps. aeruginosa ATCC#9027; contact time 24 hrs): 100 ppm AI | Cb, MBIT alone (QB, MIC) (Ps. aeruginosa ATCC#9027; contact time 48 hrs): 175 ppm AI | Cb - ppm AI of MBIT (MIC end-point; alone QB or in the mixture Qb) (S. aureus ATCC#6538; S. aureus ATCC#6538, contact time 24 hrs, Table 5): 30 ppm | Cb - ppm AI of MBIT (MIC end-point; alone QB or in the mixture Qb) (S. aureus ATCC#6538; S. aureus ATCC#6538, contact time 24 hrs, Table 6): 30 ppm | Cb - ppm AI of MBIT (MIC end-point; alone QB or in the mixture Qb) (S. aureus ATCC#6538; S. aureus ATCC#6538, contact time 48 hrs, Table 5): 60 ppm | Cb - ppm AI of MBIT (MIC end-point; alone QB or in the mixture Qb) (S. aureus ATCC#6538; S. aureus ATCC#6538, contact time 48 hrs, Table 6): 60 ppm | Cb, MBIT alone (QB, MIC) (S. aureus ATCC#6538; contact time 24 hrs): 60 ppm AI and 30 ppm AI | Cb, MBIT alone (QB, MIC) (S. aureus ATCC#6538; contact time 48 hrs): 60 ppm AI | Cb - ppm AI of MBIT (MIC end-point; alone QB or in the mixture Qb) ([1]; C. albicans ATCC # 10231, contact time 48 hrs, Table 5): 30 ppm | Cb - ppm AI of MBIT (MIC end-point; alone QB or in the mixture Qb) ([1]; C. albicans ATCC # 10231, contact time 48 hrs, Table 6): 30 ppm | Cb - ppm AI of MBIT (MIC end-point; alone QB or in the mixture Qb) ([1]; C. albicans ATCC # 10231, contact time 72 hrs, Table 5): 30 ppm | Cb - ppm AI of MBIT (MIC end-point; alone QB or in the mixture Qb) ([1]; C. albicans ATCC # 10231, contact time 72 hrs, Table 6): 30 ppm | Cb, MBIT alone (QB, MIC) ([1]; contact time 48 hrs): 30 ppm AI | Cb, MBIT alone (QB, MIC) ([1]; contact time 72 hrs): 30 ppm AI | Cb - ppm AI of MBIT (MIC end-point; alone QB or in the mixture Qb) ([2]; A. niger ATCC # 16404, contact time 3 days, Table 5): 37.5 ppm | Cb - ppm AI of MBIT (MIC end-point; alone QB or in the mixture Qb) ([2]; A. niger ATCC # 16404, contact time 3 days, Table 6): 37.5 ppm | Cb - ppm AI of MBIT (MIC end-point; alone QB or in the mixture Qb) ([2]; A. niger ATCC # 16404, contact time 7 days, Table 5): 150 ppm | Cb - ppm AI of MBIT (MIC end-point; alone QB or in the mixture Qb) ([2]; A. niger ATCC # 16404, contact time 7 days, Table 6): 150 ppm

CCCCCCCCn1sccc1=O [OIT, 2-N-octyl-4-isothiazolin-3-one]
Ca, first component alone (QA, MIC) (Ps. aeruginosa ATCC#9027; contact time 24 hrs): 650 ppm AI | Ca, first component alone (QA, MIC) (Ps. aeruginosa ATCC#9027; contact time 48 hrs): 650 ppm AI | Ca, first component alone (QA, MIC) (S. aureus ATCC#6538; contact time 24 hrs): 30 ppm AI | Ca, first component alone (QA, MIC) (S. aureus ATCC#6538; contact time 48 hrs): 200 ppm AI | Ca, first component alone (QA, MIC) ([1]; contact time 48 hrs): 3.25 ppm AI | Ca, first component alone (QA, MIC) ([1]; contact time 72 hrs): 3.25 ppm AI | Ca, first component alone (QA, MIC) ([2]; contact time 3 days): 0.65 ppm AI | Ca, first component alone (QA, MIC) ([2]; contact time 7 days): 8.75 ppm AI

CCCC1COC(Cn2cncn2)(c2ccc(Cl)cc2Cl)O1 (stereo not shown) [propiconazole]
MIC (Ps. aeruginosa ATCC#9027; Ps. aeruginosa ATCC#9027, contact time 24 hrs, read-out: Ca - ppm AI of Propiconazole (MIC end-point; alone QA or in the mixture Qa)): 875 µg/mL | MIC (Ps. aeruginosa ATCC#9027; Ps. aeruginosa ATCC#9027, contact time 48 hrs, read-out: Ca - ppm AI of Propiconazole (MIC end-point; alone QA or in the mixture Qa)): 875 µg/mL | MIC (S. aureus ATCC#6538; S. aureus ATCC#6538, contact time 24 hrs, read-out: Ca - ppm AI of Propiconazole (MIC end-point; alone QA or in the mixture Qa)): 1100 µg/mL | MIC (S. aureus ATCC#6538; S. aureus ATCC#6538, contact time 48 hrs, read-out: Ca - ppm AI of Propiconazole (MIC end-point; alone QA or in the mixture Qa)): 1100 µg/mL | MIC ([1]; C. albicans ATCC # 10231, contact time 48 hrs, read-out: Ca - ppm AI of Propiconazole (MIC end-point; alone QA or in the mixture Qa)): 525 µg/mL | MIC ([1]; C. albicans ATCC # 10231, contact time 72 hrs, read-out: Ca - ppm AI of Propiconazole (MIC end-point; alone QA or in the mixture Qa)): 525 µg/mL | MIC ([2]; ATCC16404, 72 h, A. niger ATCC # 16404, contact time 3 days, read-out: Ca - ppm AI of Propiconazole (MIC end-point; alone QA or in the mixture Qa)): 52.5 µg/mL | MIC ([2]; ATCC16404, 168 h, A. niger ATCC # 16404, contact time 7 days, read-out: Ca - ppm AI of Propiconazole (MIC end-point; alone QA or in the mixture Qa)): 87.5 µg/mL

CC(C)(C)C(O)(CCc1ccc(Cl)cc1)Cn1cncn1 (stereo not shown) [tebuconazole]
MIC (Ps. aeruginosa ATCC#9027; Ps. aeruginosa ATCC#9027, contact time 24 hrs, read-out: Ca - ppm AI of Tebuconazole (MIC end-point; alone QA or in the mixture Qa)): 875 µg/mL | MIC (Ps. aeruginosa ATCC#9027; Ps. aeruginosa ATCC#9027, contact time 48 hrs, read-out: Ca - ppm AI of Tebuconazole (MIC end-point; alone QA or in the mixture Qa)): 1100 µg/mL | MIC (S. aureus ATCC#6538; S. aureus ATCC#6538, contact time 24 hrs, read-out: Ca - ppm AI of Tebuconazole (MIC end-point; alone QA or in the mixture Qa)): 300 µg/mL | MIC (S. aureus ATCC#6538; S. aureus ATCC#6538, contact time 48 hrs, read-out: Ca - ppm AI of Tebuconazole (MIC end-point; alone QA or in the mixture Qa)): 425 µg/mL | MIC ([1]; C. albicans ATCC # 10231, contact time 48 hrs, read-out: Ca - ppm AI of Tebuconazole (MIC end-point; alone QA or in the mixture Qa)): 110 µg/mL | MIC ([1]; C. albicans ATCC # 10231, contact time 72 hrs, read-out: Ca - ppm AI of Tebuconazole (MIC end-point; alone QA or in the mixture Qa)): 110 µg/mL | MIC ([2]; ATCC16404, 72 h, A. niger ATCC # 16404, contact time 3 days, read-out: Ca - ppm AI of Tebuconazole (MIC end-point; alone QA or in the mixture Qa)): 4.25 µg/mL | MIC ([2]; ATCC16404, 168 h, A. niger ATCC # 16404, contact time 7 days, read-out: Ca - ppm AI of Tebuconazole (MIC end-point; alone QA or in the mixture Qa)): 11 µg/mL
